Experimental data published in patent US20090088472A1, “Protective Agent for Neuronal Cell Comprising Amidino Derivative as Active Ingredient” (priority 2006, published 2009).

Key:
trypsin = details: stated as known; cited from earlier work
[1] = tested on: retinal neuronal cells (RGC in ganglion cell layer, inner plexiform layer) damaged by NMDA; assay: NMDA-induced retinal damage in rats (intravitreal administration, histology after 14 days); type: in vivo; details: rat, 14 days after administration
Source text: In order to study the effect of protecting a retinal neuronal cell of a compound represented by the general formula [I] or a salt thereof, the effects of nafamostat and FUT-187, each of which is a compound represented by the general formula [I] or a salt thereof on NMDA-induced retinal damage in rats were studied. As comparative compounds, camostat (N,N-dimethylcarbamoylmethyl-4-(4-guanidinobenzoyloxy)phenylacetate methanesulfonate) represented by the following formula [II] and gabexate (ethyl-4-(6-guanidinohexanoyloxy)benzoate methanesulfonate) represented by the following formula [III] were used.
Each of NMDA, nafamostat and FUT-187 was dissolved in distilled water, whereby an NMDA solution, a nafamostat solution, and an FUT-187 aqueous solution were obtained. Then, the solutions were appropriately mixed, whereby an aqueous solution of 4 mM NMDA and 2 mM nafamostat (hereinafter referred to as “Test liquid 1”) and an aqueous solution of 4 mM NMDA and 2 mM FUT-187 (hereinafter referred to as “Test liquid 2”) were obtained. In the same manner, an aqueous solution of 4 mM NMDA and 20 mM camostat (hereinafter referred to as “Comparative test liquid 1”) and an aqueous solution of 4 mM NMDA and 20 mM gabexate (hereinafter referred to as “Comparative test liquid 2”) were obtained. Further, by mixing the NMDA solution and distilled water, a 4 mM NMDA liquid (hereinafter referred to as “NMDA liquid”) was obtained.
Mydriasis was induced in a rat with a 0.5% (w/v) tropicamide-0.5% phenylephrine hydrochloride ophthalmic solution, and then, anesthesia was induced with 3% halothane, and then, anesthesia was maintained with 1% halothane (halothane was vaporized with 0.5 L oxygen/min and 1.5 L dinitrogen monoxide/min). Then, a 0.4% (w/v) oxybuprocaine hydrochloride ophthalmic solution was instilled to the rat to anesthetize the surface of the eyeball, and by using a 32-gauge Hamilton microsyringe, 5 μl of Test liquid 1 was intravitreally administered under an operating microscope. Further, the same procedure as above was carried out by sequentially altering Test liquid 1 into distilled water, NMDA liquid, Test liquid 2, Comparative test liquid 1 and Comparative test liquid 2, respectively. Then, 14 days after the administration, the eyeball was taken out and fixed in 2.5% glutaraldehyde-10% neutral buffered formalin for 1 day. Thereafter, the cornea and lens were excised, and the 2.5% glutaraldehyde-10% neutral buffered formalin was changed to 10% neutral buffered formalin. At a later date, dehydration was carried out, followed by paraffin embedding and slicing and pathological tissue sections (with a thickness of 3 μm) stained with hematoxylin-eosin (HE) were prepared. From 8 sections which had been prepared by slicing the specimen with an interval of 15 μm per one eye such that the optic papilla was contained, 3 sections were optionally selected. With regard to the thus selected sections, a photograph of the retina in the range of from 1 to 1.5 mm on the left or right side from the optic papilla was taken, and the number of cells in the ganglion cell layer (GCL) in the retina (RGC number) and the thickness of the inner plexiform layer (IPL) were measured. From these measured values and in accordance with Equation 1 and Equation 2, a ganglion cell death inhibition rate and an IPL thinning inhibition rate were calculated. […]

[2] = 10 nmol/eye co-administered with 4 mM NMDA (5 μl)
[3] = 10 nmol/eye co-administered with 4 mM NMDA (5 μl), listed as nafamostat
[4] = 10 nmol/eye co-administered with 4 mM NMDA (5 μl), listed as FUT-187
[5] = 100 nmol/eye co-administered with 4 mM NMDA (5 μl)

SMILES	trypsin inhibitory activity (trypsin)	Ganglion cell death inhibition rate [1, 2] [%]	IPL thinning inhibition rate [1, 2] [%]	Ganglion cell death inhibition rate [1, 3]	IPL thinning inhibition rate [1, 3]	Ganglion cell death inhibition rate [1, 4]	IPL thinning inhibition rate [1, 4]	Ganglion cell death inhibition rate [1, 5] [%]	IPL thinning inhibition rate [1, 5] [%]
N=C(N)Nc1ccc(C(=O)Oc2ccc3cc(C(=N)N)ccc3c2)cc1 [Test liquid 1, 6′-amidino-2′-naphthyl-4-guanidinobenzoate dimethanesulfonate]	have the same activity	78.8	54.8	high	high				
N=C(N)c1ccc2cc(OC(=O)c3ccc(NC4=NCCN4)cc3)ccc2c1 [Test liquid 2, 6′-amidino-2′-naphthyl-(4-(4,5-dihydro-1H-2-imidazolyl)amino)benzoate dimethanesulfonate]	have the same activity	136.8	63.1			high	high		
CCOC(=O)c1ccc(OC(=O)CCCCCNC(=N)N)cc1 [Comparative test liquid 2, ethyl-4-(6-guanidinohexanoyloxy)benzoate methanesulfonate]	have a trypsin inhibitory activity							17.8	2.4
